Source: patent US7498343B2, “Mycobacterial inhibitors” (priority 2002, dated 2009)
Converted amounts (≈) assume the structure as drawn. Where two headings read alike, the source gives them in different places.

How the values were obtained:
[1] = system: Mycobacterium tuberculosis (strain H37RV); assay: In-vitro method for testing compounds against M. tuberculosis (resazurin growth inhibition, MIC); format: cell-based; details: MIC data representing IC90's, 7 days incubation, resazurin fluorescence
M. Smegmatis ATCC607 = assay: In-vitro method for testing compounds for anti-bacterial activity against strain M. smegmatis ATCC607 (Alamar Blue growth inhibition); format: cell-based; details: pIC50 = -logIC50, IC50 in M, 50% inhibitory concentration for bacterial growth, 48 hours incubation; for pIC50: M. smegmatis ATCC607; for IC50: Mycolicibacterium smegmatis, ATCC607, 48 h, read-out: pIC50, M. smegmatis ATCC607 (converted)
Description: C.2. In-vitro Method for Testing Compounds for Anti-bacterial Activity Against Strain M. Smegmatis ATCC607. […] Subsequently, stock solutions (7.8×final test concentration) of compounds were added in 45 μl volumes to a series of duplicate wells in column 2 so as to allow evaluation of their effects on bacterial growth. Serial five-fold dilutions (45 μl in 180 μl) were made directly in the microtiter plates from column 2 to 11 using a customised robot system (Zymark Corp., Hopkinton, Mass.). Pipette tips were changed after every 3 dilutions to minimize pipetting errors with high hydrophobic compounds. Untreated control samples with (column 1) and without (column 12) inoculum were included in each microtiter plate. Approximately 250 CFU per well of bacteria inoculum, in a volume of 100 μl in 2.8×Mueller-Hinton broth medium, was added to the rows […]. The same volume of broth medium without inoculum was added to column 12 in row A to H. The cultures were incubated at 37° C. for 48 hours in a humidified 5% CO2 atmosphere (incubator with open air valve and continuous ventilation). At the end of incubation, two days after inoculation, the bacterial growth was quantitated fluorometrically. Therefore Alamar Blue (10×) was added to all wells in a volume of 20 μl and plates were incubated for another 2 hours at […] The fluorescence was read in a computer-controlled fluorometer (Cytofluor, Biosearch) at an excitation wavelength of 530 nm and an emission wavelength of 590 nm (gain 30). The % growth inhibition achieved by the compounds was calculated according to standard methods.

[2] = Mycobacterium tuberculosis, H37RV, 168 h, read-out: MIC

SMILES | MIC [1] | pIC50 (M. Smegmatis ATCC607) | MIC [1, 2] | IC50 (M. Smegmatis ATCC607)
COc1nc2ccc(Br)cc2cc1C(c1ccccc1)C(O)(CCN(C)C)c1cccc2ccccc12 (centres unmarked) [Compound 14] | 8.80 microgram/ml | 6.8 | – | –
COc1nc2ccc(C)cc2cc1C(c1ccccc1)C(O)(CCN(C)C)c1ccccc1 (single isomer, unassigned) [Compound 22] | 1.11 microgram/ml | 7.2 | – | –
COc1nc2cc(C)c(Br)cc2cc1C(c1ccccc1)C(O)(CCN(C)C)c1cc(F)cc(F)c1 (single isomer, unassigned) [Compound 228] | 8.80 microgram/ml | 5.1 | – | –
COc1nc2ccc(Br)cc2cc1C(c1ccccc1)C(O)(CCN(C)C)c1cc(F)cc(F)c1 (centres unmarked) [Compound 115] | 0.07 microgram/ml | 8.6 | – | –
COc1nc2ccc(Br)cc2cc1C(c1ccccc1)C(O)(CCN(C)C)c1ccc(C#N)cc1 (racemic) [Compound 80] | 2.11 microgram/ml | 7.1 | – | –
COc1nc2ccc(Br)cc2cc1C(c1ccccc1)C(O)(CCN(C)C)c1cccc(F)c1 (centres unmarked) [Compound 39] | 8.30 microgram/ml | 6.1 | – | –
COc1nc2ccc(Br)cc2cc1C(c1ccccc1)C(O)(CCN1CCCCC1)c1ccc2ccccc2c1 (centres unmarked) [Compound 129] | – | 4.7 | 47.3 µg/mL (≈ 79.4 µM) | –
COc1nc2ccc(Br)cc2cc1C(c1ccccc1)C(O)(CCN(C)C)c1cccnc1 (racemic) [Compound 86] | 16.02 microgram/ml | 6.9 | – | –
COc1ccc2cc(C(O)(CCN(C)C)C(c3ccccc3)c3cc4cc(Br)ccc4nc3OC)ccc2c1 (single isomer, unassigned) [Compound 162] | 9.28 microgram/ml | 7.0 | – | –
COc1nc2ccc(Br)cc2cc1C(c1ccccc1)C(O)(CCCCN(C)C)c1ccccc1 (single isomer, unassigned) [Compound 66] | 1.69 microgram/ml | 4.7 | – | –
COc1nc2ccc(Br)cc2cc1C(c1ccccc1)C(O)(CCCN(C)C)c1ccccc1 (single isomer, unassigned) [Compound 64] | 6.54 microgram/ml | 5.8 | – | –
COc1nc2ccc(Br)cc2cc1C(c1ccccc1)C(O)(CCN(C)C)c1ccc(C#N)cc1 (racemic) [Compound 81] | 42.14 microgram/ml | 5.4 | – | –
COc1nc2ccc(Br)cc2cc1C(c1ccccc1)C(O)(CCCN1CCCC1)c1ccc2ccccc2c1 (single isomer, unassigned) [Compound 132] | 47.31 microgram/ml | 4.4 | – | –
COc1nc2ccc(F)cc2cc1C(c1ccccc1)C(O)(CCN(C)C)c1ccccc1 (single isomer, unassigned) [Compound 29] | 44.46 microgram/ml | 5.9 | – | –
COc1nc2ccc(Br)cc2cc1C(c1ccccc1)C(O)(CCN(C)C)c1cc(Br)cc2ccccc12 (single isomer, unassigned) [Compound 143] | 50.39 microgram/ml | 6.9 | – | –
COc1nc2ccc(Br)cc2cc1C(c1ccccc1)C(O)(CCN(C)C)c1cc(F)cc(F)c1 (centres unmarked) [Compound 117] | 1.71 microgram/ml | 6.7 | – | –
COc1nc2ccc(Br)cc2cc1C(c1ccccc1)C(O)(CCn1ccnc1)c1ccccc1 (centres unmarked) [Compound 49] | – | 5.4 | 52.9 µg/mL (≈ 100 µM) | –
COc1ccc2nc(OC)c(C(c3ccccc3)C(O)(CCN(C)C)c3cccc4ccccc34)cc2c1 (single isomer, unassigned) [Compound 98] | 0.51 microgram/ml | 7.9 | – | –
COc1nc2ccc(Br)cc2cc1C(c1ccccc1)C(O)(CCN(C)C)c1ccc(N2CCOCC2)cc1 (racemic) [Compound 89] | 59.06 microgram/ml | 6.4 | – | –
COc1nc2ccccc2cc1C(c1ccccc1)C(O)(CCN(C)C)c1cccc2ccccc12 (racemic) [Compound 91] | 1.51 microgram/ml | 7.5 | – | –
COc1nc2ccc(-c3ccccc3)cc2cc1C(c1ccccc1)C(O)(CCN(C)C)c1ccccc1 (single isomer, unassigned) [Compound 27] | 7.97 microgram/ml | 5.9 | – | –
COc1nc2ccc(Br)cc2cc1C(c1ccccc1)C(O)(CCCCN(C)C)c1ccc2ccccc2c1 (single isomer, unassigned) [Compound 191] | 1.85 microgram/ml | 6.5 | – | –

SMILES | MIC [1] | pIC50 (M. Smegmatis ATCC607) | MIC [1, 2] | IC50 (M. Smegmatis ATCC607)
COc1nc2ccc(Br)cc2cc1C(c1ccccc1)C(O)(CCN(C)C)c1cc(F)ccc1F (centres unmarked) [Compound 67] | 0.34 microgram/ml | 8.6 | – | –
COc1nc2ccccc2cc1C(c1ccccc1)C(O)(CCN(C)C)c1cccc2ccccc12 (racemic) [Compound 92] | 7.55 microgram/ml | 6.5 | – | –
COc1nc2ccc(Br)cc2cc1C(c1ccccc1)C(O)(CCN1CCN(C)CC1)c1cccc2ccccc12 (single isomer, unassigned) [Compound 149] | 48.50 microgram/ml | 5.1 | – | –
COc1nc2ccc(Br)cc2cc1C(c1ccccc1)C(O)(CCCN1CCCC1)c1ccc2ccccc2c1 (single isomer, unassigned) [Compound 133] | 59.56 microgram/ml | 5.1 | – | –
CCN(CC)CCCC(O)(c1ccc2ccccc2c1)C(c1ccccc1)c1cc2cc(Br)ccc2nc1OC (single isomer, unassigned) [Compound 193] | 9.47 microgram/ml | 5.6 | – | –
COc1nc2ccc(-c3ccccc3)cc2cc1C(c1ccccc1)C(O)(CCN(C)C)c1cccc2ccccc12 (racemic) [Compound 85] | 8.76 microgram/ml | 5.9 | – | –
COc1nc2ccc(Br)cc2cc1C(c1ccccc1)C(O)(CCN(C)C)c1cccs1 (single isomer, unassigned) [Compound 20] | 40.63 microgram/ml | 5.9 | – | –
COc1nc2ccc(Br)cc2cc1C(c1ccccc1)C(O)(CCN1CCN(C)CC1)c1ccc2ccccc2c1 (racemic) [Compound 137] | 42.23 microgram/ml | 4.6 | – | –
COc1ccc2nc(OC)c(C(c3ccccc3)C(O)(CCN(C)C)c3ccccc3)cc2c1 (single isomer, unassigned) [Compound 35] | 1.82 microgram/ml | 6.8 | – | –
COc1nc2ccc(C#N)cc2cc1C(c1ccccc1)C(O)(CCN(C)C)c1cccc(F)c1 (single isomer, unassigned) [Compound 180] | 3.73 microgram/ml | 6.6 | – | –
COc1nc2ccc(Br)cc2cc1C(c1ccc(Cl)cc1)C(O)(CCN(C)C)c1cccc2ccccc12 (racemic) [Compound 74] | 59.00 microgram/ml | 6.5 | – | –
COc1nc2ccc(Br)cc2cc1C(c1ccccc1)C(O)(CCN(C)C)c1cc(F)ccc1F (centres unmarked) [Compound 110] | 0.34 microgram/ml | 8.5 | – | –
COc1nc2ccc(-c3cc4ccccc4s3)cc2cc1C(c1ccccc1)C(O)(CCN(C)C)c1cccc(F)c1 (single isomer, unassigned) [Compound 204] | 9.14 microgram/ml | 5.4 | – | –
COc1nc2ccc(Br)cc2cc1[C@@H](c1ccccc1)[C@@](O)(CCN(C)C)c1cccc2ccccc12 [Compound 12, (1R,2S) 1-(6-bromo-2-methoxy-quinolin-3-yl)-4-dimethylamino-2-naphthalen-1-yl-1-phenyl-butan-2-ol] | – | – | 0.07 µg/mL (≈ 0.126 µM) | 2 nM
CCN(C)CCC(O)(c1ccc2ccccc2c1)C(c1ccccc1)c1cc2cc(Br)ccc2nc1OC (centres unmarked) [Compound 142] | 9.03 microgram/ml | 6.2 | – | –
COc1ccc2nc(OC)c(C(c3ccccc3)C(O)(CCN(C)C)c3ccccc3)cc2c1 (single isomer, unassigned) [Compound 34] | 45.66 microgram/ml | 5.1 | – | –
COc1nc2cc(C)c(Br)cc2cc1C(c1ccccc1)C(O)(CCN(C)C)c1cc(F)cc(F)c1 (single isomer, unassigned) [Compound 227] | 1.76 microgram/ml | 7.5 | – | –
COc1nc2ccc(Br)cc2cc1C(c1ccccc1)C(O)(CCN(C)C)c1cccc2ccccc12 (centres unmarked) [Compound 13] | 44.13 microgram/ml | – | – | 200 nM
COc1nc2ccc(Br)cc2cc1C(c1ccccc1)C(O)(CCN1CCOCC1)c1ccc2cc(Br)ccc2c1 (single isomer, unassigned) [Compound 178] | 67.65 microgram/ml | 4.5 | – | –
COc1nc2cccc(Br)c2cc1C(c1ccccc1)C(O)(CCN(C)C)c1cccc2ccccc12 (single isomer, unassigned) [Compound 221] | 44.13 microgram/ml | 6.5 | – | –
COc1nc2ccc(Br)cc2cc1C(c1ccccc1)C(O)(CCN1CCN(c2ncccn2)CC1)c1ccc2ccccc2c1 (single isomer, unassigned) [Compound 200] | 67.47 microgram/ml | 4.9 | – | –
